Measured values taken from PubChem BioAssay AID588620 (NMMLSC, 2011).
Active and inactive are the calls of the source.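 Rule for the calls: active = fitted half-maximal concentration below 30 µM for cell fluorescence in pump-free yeast, so likely self-fluorescent; inactive = the rest.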

Assay: concentration-dependent intrinsic compound fluorescence, S. cerevisiae AD/pABC3, flow cytometry, Cherry Pick1 hits, artefact control for antifungal efflux pump inhibitor project, dose response (AID 588620);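 note: red emission of unstained cells excited at 488 nm measured in PE-Texas Red channel; cell median fluorescence as percent of DMSO wells so 100% equals vehicle baseline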
Settings: S. cerevisiae AD/pABC3 compound autofluorescence, flow cytometry; at 33.1 µM (top of the series)

Structure (SMILES) | fluorescence response, % of control
COc1ccc(S(=O)(=O)N(C)C[C@H]2Oc3c(NC(=O)NC4CCCCC4)cccc3C(=O)N([C@H](C)CO)C[C@@H]2C)cc1 | 119% (inactive)
Cc1cc(C(=O)NC2CC(C)(C)Cc3c2cnn3-c2ccc(F)cc2)no1 (stereo unspecified) | 98.7% (inactive)
O=C1c2cc(Cl)ccc2OC2(CCNCC2)C12CC(c1ccc(Cl)cc1)=NO2 (stereo unspecified) | 106% (inactive)
Cc1ccc(CNC(=O)CCCn2nc(C)c3c(C)n(-c4ccccc4)nc3c2=O)cc1 | 93.6% (inactive)
N#CC(C(=O)NCc1ccccc1)c1nc2ccccc2nc1N1CCCC1 (stereo unspecified) | 102% (inactive)
Cc1ccc(CC2CC(=O)N(Cc3ccco3)C2=O)cc1 (stereo unspecified) | 93.5% (inactive)
O=c1[nH]c(C2CCN(S(=O)(=O)c3ccc4c(c3)OCCO4)CC2)nc2c1nnn2Cc1ccccc1F | 82.5% (inactive)
CC(C)(C)c1cc(C(c2cccnc2)N2CCN(CCO)CC2)cc(C(C)(C)C)c1O (stereo unspecified) | 78.8% (inactive)
COc1cc(/C=C(\C#N)c2nc3ccccc3n2C)cc(OC)c1O | 333% (inactive)
COc1ccc(C2=NCC(=O)N(CC(=O)NCc3ccco3)c3sc4c(c32)CCCC4)cc1 | 95.7% (inactive)
Cc1ccccc1S(=O)(=O)Nc1nc2ccccc2nc1N1CCc2ccccc2C1 | 103% (inactive)
O=C(/C=C/c1ccccc1Cl)NCCc1ccccc1 | 89.7% (inactive)
O=C(c1ccoc1)N1CCC2(CC1)Oc1ccc(F)cc1C(=O)C21CC(c2ccc(Cl)cc2)=NO1 (stereo unspecified) | 116% (inactive)
COc1ccc(-n2ncc3c2CC(C)(C)CC3NC(=O)c2cnc(C)cn2)cc1 (stereo unspecified) | 99.3% (inactive)
O=C(/C=C/c1ccccc1[N+](=O)[O-])NCCc1ccc(F)cc1 | 90.8% (inactive)
COc1ccc2cc(CN(CC3CCCO3)S(=O)(=O)c3ccc(C(C)=O)cc3)c(=O)[nH]c2c1 (stereo unspecified) | 78.2% (inactive)
COc1ccccc1-c1sc2ccccc2c1-c1ccc(OCCN2CCCCC2)cc1 | 102% (inactive)
Cc1ccc(Cn2nnc3c(=O)[nH]c(C4CCN(S(=O)(=O)c5ccccc5F)CC4)nc32)cc1 | 90.8% (inactive)
O=[N+]([O-])c1cc(/C=N\Nc2ccccn2)ccc1Cl | 96.1% (inactive)
O=C(O)CCN1C(=O)/C(=C/c2ccc(-c3nc4ccccc4s3)o2)SC1=S | 234% (inactive)
NC1=NC[C@H](Cc2ccc(O)cc2)N1CCc1cc(C(F)(F)F)cc(C(F)(F)F)c1 | 83.1% (inactive)

Structure (SMILES) | fluorescence response, % of control
O=C1C(Cc2ccccc2)Nc2ncnc(N3CCN(c4ccccc4)CC3)c2N1Cc1ccc(Br)cc1 (stereo unspecified) | 116% (inactive)
COc1cc(OC)cc(-c2sc3ccc(OC)cc3c2-c2ccc(OCCN3CCCCC3)cc2)c1 | 122% (inactive)
CN(C(=O)c1ccc(NC(=O)c2ccco2)cc1)c1ccccc1 | 105% (inactive)
CCOc1ccccc1-c1nc(C(N)=O)c2[nH]c(=O)n(-c3cccc(C)c3)c2n1 | 80.3% (inactive)
CCCCn1c(N)c(N(CC(C)C)C(=O)CN2C(=O)NC3(CC(C)CC(C)(C)C3)C2=O)c(=O)[nH]c1=O (stereo unspecified) | 95.1% (inactive)
O=C(COC(=O)c1ccc(S(=O)(=O)N2CCCCC2)cc1)NCc1ccco1 | 91.7% (inactive)
O=C(c1ccc2c(c1)OCO2)N1CCC2(CC1)Oc1ccc(F)cc1C(=O)C21CC(c2ccc(Cl)cc2)=NO1 (stereo unspecified) | 165% (inactive)
COc1cccc(C2CC(c3ccccc3)=NN2S(=O)(=O)c2ccc(C)cc2)c1OC (stereo unspecified) | 108% (inactive)
Cn1cc(C(c2ccccn2)c2cn(C)c3ccccc23)c2ccccc21 | 97.1% (inactive)
Cc1cc(C(=O)COC(=O)c2ccc[nH]c2=O)c(C)n1-c1ccc(F)cc1 | 102% (inactive)
COc1ccc(-c2sc3ccc(OC)cc3c2-c2ccc(OCCN3CCOCC3)cc2)cc1 | 96.3% (inactive)
CC1Cc2cc(S(=O)(=O)NCc3ccccc3)ccc2N1C(=O)C1CCC1 (stereo unspecified) | 89% (inactive)
CCOc1ccccc1-c1nc(C(N)=O)c2[nH]c(=O)n(-c3ccc(F)cc3)c2n1 | 136% (inactive)
CSCCC(NC(=O)c1ccccc1Cl)C(=O)N1CCN(C(c2ccccc2)c2ccccc2)CC1 (stereo unspecified) | 80.9% (inactive)
CCCCCc1cc(=O)oc2c(C(CCN3CCCC(C)C3)c3ccc(N(C)C)cc3)c(OC)cc(OC)c12 (stereo unspecified) | 94.5% (inactive)
COc1ccc(-c2sc3cc4c(cc3c2-c2ccc(OCCN3CCCCC3)cc2)OCO4)cc1 | 91.7% (inactive)
COc1ccccc1CNS(=O)(=O)c1ccc2c(c1)CC(C)N2C(=O)C1CCC1 (stereo unspecified) | 85.7% (inactive)
CC(C)C(=O)N1CCC2(CC1)Oc1ccc(F)cc1C(=O)C21CC(c2ccccc2)=NO1 (stereo unspecified) | 115% (inactive)
Clc1ccc(Cn2nc(-c3ccccc3)nc2-c2ccccc2)cc1 | 108% (inactive)
COc1ccc(-n2ncc3c2CC(C)(C)CC3NC(=O)c2cn[nH]c2)cc1 (stereo unspecified) | 110% (inactive)
COc1ccc(CN2C(=O)C(C)Nc3ncnc(N4CCN(c5ccccc5)CC4)c32)cc1 (stereo unspecified) | 106% (inactive)

Structure (SMILES) | fluorescence response, % of control
O=C(C[n+]1cc(-c2ccc(Cl)c(Cl)c2)n2c1CCC2)N1c2ccccc2Sc2ccccc21 | 92.7% (inactive)
COc1ccc(-c2sc3ccccc3c2-c2ccc(OCCN3CCOCC3)cc2)cc1 | 111% (inactive)
CC(C)c1ccc(/C=c2\sc3nc(-c4ccncc4)nn3c2=O)cc1 | 82.5% (inactive)
CCC(=O)N1CCN(c2ccc(Cl)cc2NC(=O)c2ccc3c(c2)OCCO3)CC1 | 99.8% (inactive)
CCOC(=O)C(NC(=O)CC)(Nc1ccccc1)C(F)(F)F (stereo unspecified) | 103% (inactive)
CCOC(=O)c1cccc(NC(=O)c2ccc(NC(=O)c3ccco3)cc2)c1 | 85.8% (inactive)
O=C(c1cc(COc2cccc(C(F)(F)F)c2)on1)N1CCC(c2ccncc2)CC1 | 109% (inactive)
COc1ccc([C@H]2CC(=O)C=C(c3ccnc4ccc(Cl)cc34)C2)cc1 | 92.4% (inactive)
COc1ccccc1-c1sc2ccccc2c1-c1ccc(OCCN2CCOCC2)cc1 | 99.3% (inactive)
CC(C)C(O)(C#CCN1CCCCC1)C(C)C | 111% (inactive)
CC(=O)Nc1ccc(NC(=O)Cc2ccc(F)cc2)cc1 | 106% (inactive)
c1cc2c(cc1C1CCCCC1)c1c3n2CCCNC3CCC1 (stereo unspecified) | 132% (inactive)
Cc1noc(C)c1COc1ccccc1C(=O)N1CCN(c2cccc(C(F)(F)F)c2)CC1 | 88.1% (inactive)
C[C@H](CO)N1C[C@H](C)[C@@H](CN(C)S(=O)(=O)c2ccccc2)Oc2c(NC(=O)Nc3ccccc3)cccc2C1=O | 83.7% (inactive)
Cc1c(CCOC(=O)CC23CC4CC(CC(C)(C4)C2)C3)sc[n+]1Cc1ccc([N+](=O)[O-])cc1 | 83.6% (inactive)
O=C(Cc1c2ccccc2nc2ccccc12)c1ccccc1 | 98.7% (inactive)
O=C(O)Cc1ccc(NC(=O)c2ccc(NC(=O)c3ccco3)cc2)cc1 | 109% (inactive)
O=C(CCCc1ccccc1)Nc1cccc([N+](=O)[O-])c1 | 86.2% (inactive)
CCc1ccc(N=C2NC(=O)/C(=C/c3cc(OC)c(O)c(OC)c3)S2)cc1 | 419% (inactive)
CCc1c(C)nc2cc(-c3cc(OC)cc(OC)c3)nn2c1N1CCN(CCN2CCOCC2)CC1 | 130% (inactive)
COc1cc(OC)cc(-c2sc3ccc(OC)cc3c2-c2ccc(OCCN3CCOCC3)cc2)c1 | 111% (inactive)

Structure (SMILES) | fluorescence response, % of control
CC1(C)Cc2c(cnn2-c2ccc(F)cc2)C(NC(=O)c2cnccn2)C1 (stereo unspecified) | 102% (inactive)
CS(=O)(=O)Nc1ccc(C(=O)Nc2ccc3c(c2)OCCO3)cc1 | 95.7% (inactive)
O=C(O)C(c1ccccc1)N1C(=O)/C(=C\c2ccc(O)c(O)c2)SC1=S (stereo unspecified) | 226% (inactive)
COc1ccc(-c2nc3ccccc3c(=O)n2CCOc2ccccc2C)cc1 | 103% (inactive)
Nc1ccc2nc(-c3cccc(-c4nc5ccc(N)cc5[nH]4)c3)[nH]c2c1 | 99.3% (inactive)
NC1=NC[C@@H](Cc2ccc(O)cc2)N1CCCCC1CCCCC1 | 93.4% (inactive)
C[C@@H]1CN(C(=O)c2cc(COc3cccc(C(F)(F)F)c3)on2)C[C@H](C)O1 | 97.1% (inactive)
Cc1ccc(C)c(C(=O)COC(=O)c2ccc(C)c(S(=O)(=O)N3CCOCC3)c2)c1 | 93.5% (inactive)
COc1cccc(-c2sc3ccc(OC)cc3c2-c2ccc(OCCN(C)C)cc2)c1 | 126% (inactive)
O=C(NCCC1=CCCCC1)C1CCC(CNc2nc(=S)[nH]c3ccccc23)CC1 (stereo unspecified) | 108% (inactive)
COc1cccc(-c2sc3ccc(OC)cc3c2-c2ccc(OCCN3CCCC3)cc2)c1 | 112% (inactive)
Cc1ccc(C(=O)N2CCC3(CC2)Oc2ccc(Cl)cc2C(=O)C32CC(c3cccnc3)=NO2)s1 (stereo unspecified) | 127% (inactive)
CCn1ncc(Br)c1C(=O)Nc1cc(C)cc(C)c1 | 129% (inactive)
O=C(NC1CCCCC1)c1cc2ccccc2cc1O | 78.8% (inactive)
O=C(O)c1nccnc1C(=O)N1CCN(c2ccccc2)CC1 | 121% (inactive)
COc1ccc(-c2nc(Cn3c(SCc4ccc(C)cc4)nc4ccncc43)c(C)o2)cc1OC | 87.6% (inactive)
CCC(Sc1nc2ccsc2c(=O)n1Cc1ccc(C(=O)O)cc1)C(=O)Nc1ccc(C)c(Cl)c1 (stereo unspecified) | 81.2% (inactive)
CCOC(=O)c1c(-c2ccc(-c3ccccc3)cc2)csc1NC(=O)CNCCN(C)C | 135% (inactive)
